Results reported in ChEMBL document CHEMBL2429795, “New route for synthesis, spectroscopy, and X-ray studies of 2-[aryl-(6-hydroxy-4,4-dimethyl-2-oxocyclohex-6-enyl)methyl]-3-hydroxy-5,5-dimethylcyclohex-2-enone and 1,8-dioxo-octahydroxanthenes and antitumor evaluation” (Med Chem Res, 2013).

Assays:
MCF7 = experiment: Cytotoxicity against human MCF7 cells assessed as growth inhibition after 48 hrs by sulforhodamine B assay; type: functional, cell-based; conditions: for IC50: MCF7, 48 h
PrEC [1] = experiment: Cytotoxicity against human PrEC assessed as decrease in cell viability up to 25 uM after 24 hrs by trypan blue exclusion assay; type: cell-based
NCI-H460 = experiment: Cytotoxicity against human NCI-H460 cells assessed as growth inhibition after 48 hrs by sulforhodamine B assay; type: functional, cell-based; conditions: for IC50: NCI-H460, 48 h
WI-38 [2] = experiment: Cytotoxicity against human WI38 cells assessed as decrease in cell viability up to 25 uM after 4 to 20 hrs by trypan blue exclusion assay; type: cell-based
PrEC [3] = experiment: Cytotoxicity against human PrEC assessed as growth inhibition after 48 hrs by trypan blue exclusion assay; type: cell-based; conditions: for IC50: Homo sapiens, PrEC; for growth inhibition (GI): human, prec
[4] = Cytotoxicity against human NCM460 cells assessed as growth inhibition after 48 hrs by trypan blue exclusion assay; type: cell-based; conditions: for IC50: Homo sapiens, NCM460, 48 h; for growth inhibition (GI): human, ncm460, 48 h
SF-268 = experiment: Cytotoxicity against human SF268 cells assessed as growth inhibition after 48 hrs by sulforhodamine B assay; type: functional, cell-based; conditions: for IC50: SF-268, 48 h
WI-38 [5] = experiment: Cytotoxicity against human WI38 cells assessed as growth inhibition after 48 hrs by trypan blue exclusion assay; type: cell-based; conditions: for IC50: Homo sapiens, WI-38, 48 h; for growth inhibition (GI): human, wi-38, 48 h
[6] = Cytotoxicity against human NCM460 cells assessed as decrease in cell viability up to 25 uM after 4 to 20 hrs by trypan blue exclusion assay; type: cell-based

Row | Structure (SMILES) | growth inhibition (GI) (MCF7) | IC50 (MCF7) [µM] | Activity (PrEC [1]) | growth inhibition (GI) (NCI-H460) | IC50 (NCI-H460) [µM] | Activity (WI-38 [2]) | IC50 (PrEC [3]) [µM] | growth inhibition (GI) (PrEC [3]) | IC50 [4] [µM] | growth inhibition (GI) [4] | growth inhibition (GI) (SF-268) | IC50 (SF-268) [µM] | IC50 (WI-38 [5]) [µM] | growth inhibition (GI) (WI-38 [5]) | Activity [6]
1 | CC1(C)CC(=O)C(C(C2=C(O)CC(C)(C)CC2=O)c2ccco2)=C(O)C1 | Dose-dependent effect | 0.03 | Non-toxic | Dose-dependent effect | 0.03 | Non-toxic | 0.33 | Dose-dependent effect | 0.06 | Dose-dependent effect | Dose-dependent effect | 0.03 | 0.08 | Dose-dependent effect | Non-toxic
2 | CC1(C)CC(=O)C(C(C2=C(O)CC(C)(C)CC2=O)c2ccccc2)=C(O)C1 | Dose-dependent effect | 0.02 | Non-toxic | Dose-dependent effect | 0.01 | Non-toxic | 1.29 | Dose-dependent effect | 2.43 | Dose-dependent effect | Dose-dependent effect | 0.02 | 2.18 | Dose-dependent effect | Non-toxic
3 | COc1cccc2c1C(=O)c1c(O)c3c(c(O)c1C2=O)C[C@@](O)(C(=O)CO)C[C@@H]3O[C@H]1C[C@H](N)[C@H](O)[C@H](C)O1 [DOXORUBICIN] |  | 0.04 |  |  | 0.09 |  |  |  |  |  |  | 0.09 |  |  | 
4 | CC1(C)CC(=O)C2=C(C1)OC1=C(C(=O)CC(C)(C)C1)C2c1ccccc1 | Dose-dependent effect | 30.4 | Non-toxic | Dose-dependent effect | 20.1 | Non-toxic | 0.45 | Dose-dependent effect | 0.09 | Dose-dependent effect | Dose-dependent effect | 36.3 | 0.47 | Dose-dependent effect | Non-toxic
